This experiment deals with Campylobacter pylori 8005. The experiment is described as follows: in vitro antimicrobial activity, agar plate dilution method (MIC). The format is cell-based. As to conditions: Helicobacter pylori, 48 h, Brucella Agar containing 5% horse lysed blood, 37° C., 10% carbon dioxide gas, 2 days, inoculum 10^7 cells/ml, read-out: minimal inhibitory concentration (MIC).

Values after ≈ are worked out from the molar mass of the structure shown.

With `COc1ccc2[nH]c([S+]([O-])Cc3ncc(C)c(OC)c3C)nc2c1` (stereo not shown) [omeprazole, 5-methoxy-2-[[(4-methoxy-3,5-dimethyl-2-pyridinyl)methyl]-sulfinyl]-1H-benzimidazole], the MIC was 0.39 µg/mL (≈ 1.13 µM).

The values are drawn from patent US5093342A, “Use of omeprazole as an antimicrobial agent” (priority 1989, dated 1992).
